Where two headings read alike, the source gives them in different places.
What was measured:
[1] = Pharmacokinetics of rotigotine in rat after intravenous and subcutaneous administration of POZ conjugates; type: in vivo, male Sprague-Dawley rats; settings: for PK profile of plasma rotigotine, in words / Cmax values of plasma rotigotine: rat; for PK profile of plasma rotigotine, in words: SC compared with IV; for Cmax values of plasma rotigotine: at 12 hours, dosed SC at 1.6 mg/kg
Experimental: In order to study the pharmacokinetics of the POZ conjugates described herein, in vivo studies were conducted with male Sprague-Dawley rats. Twenty-seven male cannulated Sprague-Dawley rats (300-350 g) were divided into nine groups of 3 animals per group. Groups I-II received a single subcutaneous (SC) dose (right flank) of POZ acetyl rotigotine (as described in Example 6) at equivalent doses of 1.6 and 6.4 mg/kg. […] Group V received a single subcutaneous (SC) dose (right flank) of rotigotine hydrochloride at an equivalent dose of 0.5 mg/kg. Groups VI-VII received a single intravenous (IV) dose (lateral tail vein) of POZ acetyl rotigotine (as described in Example 6) at equivalent doses of 0.5 and 2.0 mg/kg. […] The test articles were dissolved in 5% dextrose injection and filtered prior to each injection. Serial blood samples were obtained from each intravenously dosed animal through the cannulated catheter, at time intervals of end of injection, 12, 24, 48, 96 and 168 hours. The time intervals for the subcutaneously dosed animals were 6, 12, 24, 48, 96 and 168 hours. The blood was processed to collect the plasma which was stored at −70° C. before analysis. The plasma samples were extracted with acetonitrile using d3-rotigotine as an internal standard and the analytes in the extract were assayed by chromatographic analysis on LC/MS-MS system using a C-18 reverse phase column with 0.9 um silica coreshell (Accucore™, Thermo Scientific, 30×2.1 mm ID and 2.6 micron particle size). The mobile phase was ammonium formate 10 mM pH3.0 (solvent A); and 90% acetonitrile, 10% methanol, and 0.1% formic acid (solvent B), eluting at 0.6 mL/min.

6-OHDA Rat Model [2] = test: Rotational test in the 6-OHDA rat model, single subcutaneous dose; type: in vivo, female Sprague-Dawley rats
Experimental: (§1) In order to study the efficacy of the POZ conjugates described herein, in vivo studies were conducted with female Sprague-Dawley rats. Female Sprague-Dawley rats (275-350 g) were used in the study. Each animal underwent stereotaxic surgery and received a unilateral lesion of the right nigrostriatal pathway via injection of 12.5 μg of 6-hydroxydopamine (6-OHDA) into a single site in the medial forebrain bundle. Rats were monitored over two weeks and underwent behavioral assessment (on day −7) via the cylinder test. Animals lacking overt behavioral asymmetry ([…] ipsilateral forelimb use) were excluded from the study. The rats were them randomly assigned to one of six treatment groups (each N=8). […] The rats received a single subcutaneous dose (2 mL/kg) of vehicle (5% dextrose) or test compound dissolved in 5% dextrose.
(§2) Each group of animals (A-F as described above) were independently assessed rat for rotational behavior and forelimb symmetry on day 1, day 2, day 5 and day 9. In the rotational test, the animals were placed in an automated rotometer apparatus (MedAssociates, USA) and the net number of rotations contraversive to the lesion were recorded over a period of 6 hours on each day. In the forelimb symmetry test, the rats are placed in a clear glass cylinder without top (15 cm diameter×45 cm tall). The number of times each paw touches the side of the cylinder during an individual rear is recorded over a 10 minute observation on each day. The first limb in any rear to touch the wall is scored a single point. If both limbs contact within 0.4 s of each other, then this is scored as a ‘both’. All subsequent exploratory movements about the wall using that limb are scored independently until the other limb contacts the wall with weight support. Alternating stepping motions involving both paws one after the other receive a single score for both. The net number of contralateral touches are calculated and considered a favorable response.

6-OHDA Rat Model [3] = test: Forelimb asymmetry (cylinder) test in the 6-OHDA rat model, single subcutaneous dose; type: in vivo, female Sprague-Dawley rats
Experimental: as §1, §2

[4] = rats; cited from earlier work
[5] = man; cited from earlier work
[6] = oral; cited from earlier work
[7] = Water solubility of the produced polyoxazoline conjugate; type: physicochemical
[8] = Pharmacokinetics of rotigotine in monkey after subcutaneous administration of POZ conjugates; type: in vivo, female macaques (Cynomolgus monkeys); settings: for average terminal plasma half-life (t½) of rotigotine: one subcutaneous dose, 1.5 or 4.5 mg/kg rotigotine equivalents
Experimental: The pharmacokinetics of the POZ conjugates of rotigotine was measured in normal, treatment-naïve female macaques. Animals were randomly assigned into four treatment groups, each N=3. […] The test articles were dissolved in 5% dextrose injection and filtered prior to each injection. Serial venous blood samples were obtained from each animal prior to administration of experimental agents on Day 1 and subsequently at 15 min, 30 min, 1 h, 2 h, 4 h, 6 h, 8 h, 24 h, 48 h, 96 h, 192 h, 240 h and 336 h. The blood was processed to collect the plasma which was stored at −70° C. before analysis. These plasma samples were processed and assayed by chromatographic analysis on LC/MS-MS system as described in Example 31.

Row | Molecule | terminal plasma half-life (t½) of rotigotine ([1]; rat plasma, IV or SC dosing) | PK profile of plasma rotigotine, in words [1] | Cmax values of plasma rotigotine [1] | Net number of contraversive turns/6 h period (Average ± SEM; n = 8) (6-OHDA Rat Model [2]; 1.6 mg/kg SC, Day 1) | Net number of contraversive turns/6 h period (Average ± SEM; n = 8) (6-OHDA Rat Model [2]; 1.6 mg/kg SC, Day 5) | Net ipsiversive forelimb use as a percentage of total forelimb use (Average ± SEM; n = 8) (6-OHDA Rat Model [3]; 1.6 mg/kg SC, Day 2) | Net ipsiversive forelimb use as a percentage of total forelimb use (Average ± SEM; n = 8) (6-OHDA Rat Model [3]; 1.6 mg/kg SC, Day 5) | water solubility, in words [7] | average terminal plasma half-life (t½) of rotigotine [8] | further results
1 | CCCN(CCc1cccs1)[C@H]1CCc2c(O)cccc2C1 [Rotigotine, S(−)-2-(N-propyl-N-2-thienylethylamino)-5-hydroxytetralin, reference compound] | – | – | – | – | – | – | – | – | – | half-life ([1]; male, Sprague-Dawley, subcutaneous, 0.5 mg/kg, rat plasma, IV or SC dosing, read-out: terminal plasma half-life (t½) of rotigotine (converted)): 2.8 h; Net number of contraversive turns/6 h period (Average ± SEM; n = 8) (6-OHDA Rat Model [2]; 0.5 mg/kg SC, Day 1): 983 ± 405 turns/6 h period; Net number of contraversive turns/6 h period (Average ± SEM; n = 8) (6-OHDA Rat Model [2]; 0.5 mg/kg SC, Day 5): −49 ± 9 turns/6 h period; Net number of contraversive turns/6 h period (Average ± SEM; n = 8) (6-OHDA Rat Model [2]; 3.0 mg/kg SC, Day 1): 1570 ± 312 turns/6 h period; Net number of contraversive turns/6 h period (Average ± SEM; n = 8) (6-OHDA Rat Model [2]; 3.0 mg/kg SC, Day 5): −39 ± 15 turns/6 h period; Net ipsiversive forelimb use as a percentage of total forelimb use (Average ± SEM; n = 8) (6-OHDA Rat Model [3]; 0.5 mg/kg SC, Day 2): 60 ± 13%; Net ipsiversive forelimb use as a percentage of total forelimb use (Average ± SEM; n = 8) (6-OHDA Rat Model [3]; 0.5 mg/kg SC, Day 5): 94 ± 6%; Net ipsiversive forelimb use as a percentage of total forelimb use (Average ± SEM; n = 8) (6-OHDA Rat Model [3]; 3.0 mg/kg SC, Day 2): 9 ± 13%; Net ipsiversive forelimb use as a percentage of total forelimb use (Average ± SEM; n = 8) (6-OHDA Rat Model [3]; 3.0 mg/kg SC, Day 5): 85 ± 8%; oral and intraperitoneal bioavailability [4]: less than 10%; half-life [5]: 2.5 h
2 | N[C@@H](Cc1ccc(O)c(O)c1)C(=O)O [levodopa] | – | – | – | – | – | – | – | – | – | bioavailability [6]: less than 10%
3 | H-[(Acetyl-Rotigotine)10(EOZ)190]—COOH 20K [POZ acetyl rotigotine] | 16 h | essentially the same PK profile when delivered either SC or IV | 48 ng/mL | 872 ± 232 turns/6 h period | −14 ± 14 turns/6 h period | 50 ± 13% | 85 ± 10% | good water solubility | – | –
4 | H-[(Propionyl-Rotigotine)10(EOZ)190]—COOH 20K [POZ propyl rotigotine] | 60 h | markedly prolonged PK profile that is near “zero order” kinetics | 6 ng/mL | 1408 ± 286 turns/6 h period | 68 ± 60 turns/6 h period | 0 ± 14% | 31 ± 13% | good water solubility | 60 h | PK profile of plasma rotigotine, in words ([8]; subcutaneous): markedly prolonged PK profile that is near “zero order” kinetics; Net number of contraversive turns/6 h period (Average ± SEM; n = 8) (6-OHDA Rat Model [2]; 6.4 mg/kg SC, Day 1): 1272 ± 405 turns/6 h period; Net number of contraversive turns/6 h period (Average ± SEM; n = 8) (6-OHDA Rat Model [2]; 6.4 mg/kg SC, Day 5): 5142 ± 777 turns/6 h period; rotational activity, in words (6-OHDA Rat Model [2]; day 5, high dose of 6.4 mg/kg): marked and continuous contraversive rotations; Net ipsiversive forelimb use as a percentage of total forelimb use (Average ± SEM; n = 8) (6-OHDA Rat Model [3]; 6.4 mg/kg SC, Day 2): −2 ± 26%; Net ipsiversive forelimb use as a percentage of total forelimb use (Average ± SEM; n = 8) (6-OHDA Rat Model [3]; 6.4 mg/kg SC, Day 5): −6 ± 16%; forelimb use activity, in words (6-OHDA Rat Model [3]; day 5, both doses of 1.6 and 6.4 mg/kg): marked and continuous ipsiversive forelimb use
5 | H-[(α-Methyl-Acetyl-Rotigotine)10(EOZ)190]—COOH 20K [POZ alpha methyl acetyl rotigotine] | – | – | – | – | – | – | – | good water solubility | 9 h | –

From US10426768B2, “Subcutaneous delivery of polymer conjugates of therapeutic agents” (Serina Therapeutics, Inc., priority 2011, dated 2019)
